Values after ≈ are worked out from the molar mass of the structure shown. “Also recorded” adds a separate entry of the source. Where two headings read alike, the source gives them in different places.
Columns and labels:
conscious rats = experiment: Respiratory evaluation in conscious rats (whole body plethysmography); assay type: in vivo, rat
Description: (§1) The possible adverse effects of polymorphic Form A on the CNS, cardiovascular, respiratory and immune functions were evaluated in vitro and in vivo (rats and dogs) in different experimental models. In the in vivo tests, the tested compound was always given by single oral administration at the doses of 100, 300 and 1000 mg/kg.
The effect of polymorphic Form A on respiratory parameters (respiratory rate, peak inspiratory and peak expiratory flows, inspiration and expiration times, airway resistance index, minute volume and tidal volume) was assessed in conscious rats after single oral administration. Respiration was measured by the whole body plethysmography method.

Salmonella typhimurium = experiment: Salmonella Typhimurium Reverse Mutation Assay (Ames test); assay type: cell-based
Description: The mutagenic potential of polymorphic Form A was evaluated in vitro in the Salmonella Typhimurium Reverse Mutation Assay according to EC guidelines. […] Therefore polymorphic Form A is to be considered non-mutagenic in this Salmonella typhimurium reverse mutation assay.

Acute toxicity in rat = details: in vivo, single
Description: (§2) Single and repeated-dose toxicity studies in rodents and non-rodents were carried out to support the clinical trials of the test compound, i.e. polymorphic Form A. Single toxicity studies were performed in mice and rats by the intraperitoneal and the oral routes. Repeated oral studies (28 days administration followed by 14 days recovery period) were performed in rats and dogs.

[1] = Thermodynamic stability / interconversion of the polymorphs; assay type: physicochemical
[2] = Solubility of the polymorphs at different pH (HPLC assay); assay type: physicochemical; details: for solubility at 24 h / solubility at 30 min: thermodynamic from solid; for solubility at 24 h: read-out: Solubility, After 24 hours; for solubility at 30 min: read-out: Solubility, Initial evaluation
Description: Both samples of powder (Form A and Form B) were used in order to evaluate the solubility properties of the two polymorphs at different pH.
The two samples were tested in the following pH conditions: • Hydrochloric acid buffer at pH=1.2 • Acetic acid at pH=3.0 • Phosphate buffer at pH=3.0 • Phosphate buffer at pH=4.6 • Phosphate buffer at pH=6.0 • Phosphate buffer at pH=7.4 • Alkaline phosphate buffer at pH=8.0
0.5 g of each samples were dissolved in a glass flask using 100 ml of the appropriate buffer. The two samples were then kept under stirring for 30 minutes. If the samples were completed dissolved, 1 additional gram was added in the flask and stirred for 30 minutes. The procedure was repeated till the presence of undissolved product in the bottom of the flask. After such a dissolution procedure, the samples were stored for 24 hours and then the dissolved amounts of Form A and Form B, respectively, were determined by HPLC assay.

conscious dogs = experiment: Cardiovascular evaluation in conscious dogs (telemetry); assay type: in vivo, dog
Description: as §1
Any possible effect of polymorphic Form A administered at the doses of 100, 300 and 1000 mg/kg by oral route on blood pressure, heart rate and electrocardiogram was evaluated in conscious dogs, free to move about, previously instrumented with telemetric transmitters. In the first part of the study, only telemetric measurements were recorded; the recording of the parameters started at least 24 hours before the administration of the compound and were continued for 24 hours following dosing. In the second part, only the highest dose of 1000 mg/kg was administered and complementary investigations such as 6-lead electrocardiogram (leads I, II, III, aVL, aVR and aVF), blood sampling and observation of the animals were performed before treatment and 3 hours post-treatment.

Acute toxicity in mouse = details: in vivo, single
Description: as §2

HERG tail current = molecular target: T1, HERG tail current (Homo sapiens, UniProt Q12809); experiment: HERG tail current, patch clamp in HEK-293 cells; assay type: cell-based
T1 construct: expressed in transfected cells; host or cells: HEK-293
From the text: A possible blocking effect of polymorphic Form A on Herg tail current recorded from HEK-293 cells (Human Embryonic Kidney cells) stably transfected with HERGG-1 cDNA was investigated. The method consisted in measuring the HERG tail current by using the patch clamp techniques in the whole cell configuration. Compounds which inhibited HERG current were recognized to prolong the cardiac action potential and increase QT interval.

[3] = test system: isolated canine Purkinje fibres; experiment: Cardiac action potential in isolated canine Purkinje fibres
Description: A possible adverse effect induced by polymorphic Form A on cardiac action potential was evaluated in isolated canine Purkinje fibres. Transmembrane action potential was measured by means of the intracellular microelectrode technique; this method is recommended to detect the capacity of a substance to induce prolongation of the QT interval.

Rat (Bone marrow Cells) = experiment: Micronucleus test in rat bone marrow; assay type: in vivo; details: os, single, 500-2000 mg/kg, 24 and 48 hours
Description: Any clastogenic or spindle poison activity of polymorphic Form A was investigated by detecting micronucleated polychromatic erythrocytes in the bone marrow of treated rats. The study was conducted in compliance with the EC Guidelines. The method involved searching for the presence of a chromosome fragment, or a number of chromosomes, resulting from a deletion or a mitotic spindle poison effect, in the polychromatic erythrocytes in the bone marrow. Clastogenic products may produce, at the moment of mitosis, chromosome breakage, while spindle poisons disturb the structure of the mitotic spindles. An acentric fragment of a chromosome that has not migrated normally is not retained in the nucleus of the daughter cell, and appears in the cytoplasm. It is then known as a Howell-Jolly body or micronucleus. The micronucleus can be detected in polychromatic erythrocytes, as these cells expel their main nucleus shortly after the last mitosis and the micronucleus remains in the red blood cells. Male and female Sprague Dawley rats were treated orally once with 2000-1000-500 mg/kg of polymorphic Form A and 24 and 48 hours after the treatment their femurs were sampled and bone marrow cells were extracted.

[4] = acetic acid, pH 3, aqueous buffer, pH 3.0 (acetic acid)
[5] = alkaline phosphate buffer, pH 8, aqueous buffer, pH 8.0
[6] = buffer at pH 6.8 (buffer type not named for this pH), pH 6.8, aqueous buffer, pH 6.8
[7] = hydrochloric acid buffer, pH 1.2, simulated gastric fluid, pH 1.2
[8] = phosphate buffer, pH 3, aqueous buffer, pH 3.0 (phosphate buffer)
[9] = phosphate buffer, pH 4.6, aqueous buffer, pH 4.6
[10] = phosphate buffer, pH 6, aqueous buffer, pH 6.0
[11] = phosphate buffer, pH 7.4, aqueous buffer, pH 7.4

T1 sequence (Q12809 whole entry): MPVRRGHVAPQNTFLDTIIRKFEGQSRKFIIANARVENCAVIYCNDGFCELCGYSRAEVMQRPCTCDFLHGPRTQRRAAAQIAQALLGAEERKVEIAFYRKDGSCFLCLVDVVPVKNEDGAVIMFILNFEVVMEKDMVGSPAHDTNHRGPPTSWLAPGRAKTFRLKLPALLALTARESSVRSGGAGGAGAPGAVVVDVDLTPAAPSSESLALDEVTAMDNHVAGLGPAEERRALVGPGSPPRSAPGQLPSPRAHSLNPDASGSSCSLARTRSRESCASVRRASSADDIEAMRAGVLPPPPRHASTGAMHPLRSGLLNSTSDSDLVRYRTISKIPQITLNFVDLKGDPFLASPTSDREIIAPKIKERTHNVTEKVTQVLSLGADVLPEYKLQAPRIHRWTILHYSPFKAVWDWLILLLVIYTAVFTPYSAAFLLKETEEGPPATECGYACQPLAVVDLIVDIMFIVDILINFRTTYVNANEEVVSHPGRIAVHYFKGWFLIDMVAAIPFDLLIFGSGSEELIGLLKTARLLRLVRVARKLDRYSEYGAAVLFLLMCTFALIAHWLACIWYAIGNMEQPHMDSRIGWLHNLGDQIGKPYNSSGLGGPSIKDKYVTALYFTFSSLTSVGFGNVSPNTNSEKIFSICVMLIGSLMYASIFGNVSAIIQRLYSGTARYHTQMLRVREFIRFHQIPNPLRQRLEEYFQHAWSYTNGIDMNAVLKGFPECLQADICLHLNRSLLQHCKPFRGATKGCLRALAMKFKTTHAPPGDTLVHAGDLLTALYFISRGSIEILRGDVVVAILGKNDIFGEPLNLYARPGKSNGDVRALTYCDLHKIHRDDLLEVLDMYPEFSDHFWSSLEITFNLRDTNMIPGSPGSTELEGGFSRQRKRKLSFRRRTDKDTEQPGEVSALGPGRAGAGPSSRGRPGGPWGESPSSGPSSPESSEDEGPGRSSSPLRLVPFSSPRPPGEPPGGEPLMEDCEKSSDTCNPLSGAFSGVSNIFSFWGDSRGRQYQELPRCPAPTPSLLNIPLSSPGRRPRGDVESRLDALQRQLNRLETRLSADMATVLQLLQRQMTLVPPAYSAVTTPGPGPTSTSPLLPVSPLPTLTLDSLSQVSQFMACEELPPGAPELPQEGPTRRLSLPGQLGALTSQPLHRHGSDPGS

## COCCCC(=O)NCc1ccc(C(F)(F)F)cc1 [Polymorphic Form A, N-[4-(trifluoromethyl)benzyl]-4-methoxybutyramide]
Conscious rats; 100 mg/kg single oral
  Respiratory parameters: no relevant effect on respiratory parameters
Conscious rats; 100, 300 and 1000 mg/kg single oral
  Peak inspiratory and peak expiratory flows, minute volume, airway resistance index: No statistically change
Conscious rats; 300 and 1000 mg/kg single oral
  Respiratory rate and tidal volume: tachypnoea associated to a transient reduction in tidal volume
Salmonella typhimurium; S. typhimurium, in vitro, 3-500 μg/ml
  Genotoxicity, Ames test result: Negative
Salmonella typhimurium; TA 1535, TA 1537, TA 98, TA 100, TA102, 50 to 3000 μg/ml, with and without metabolic activation
  Gene mutations by base pair changes or frameshifts: did not induce gene mutations
Acute toxicity in rat; ip, dose-range 200-1000
  LD50: ~800 mg/kg
Acute toxicity in rat; oral, os, dose-range 2000-4000
  LD50: > 4000 mg/kg
[1]
  Thermodynamic stability, conversion of one form into the other: thermodynamically stable, with no conversion of one into the other
[2]; [4]
  solubility at 24 h: 160 µg/mL (≈ 582 µM)
  solubility at 30 min: 124 µg/mL (≈ 450 µM)
[2]; [5]
  solubility at 24 h: 142 µg/mL (≈ 515 µM)
  solubility at 30 min: 134 µg/mL (≈ 486 µM)
[2]; [6]
  solubility at 24 h: 164 µg/mL (≈ 597 µM)
  solubility at 30 min: 106 µg/mL (≈ 385 µM)
[2]; dissolution tests on each polymorph
  Differences in solubility / dissolution properties between the two forms: have not shown differences in the solubility properties
[2]; [7]
  solubility at 24 h: 160 µg/mL (≈ 580 µM)
  solubility at 30 min: 153 µg/mL (≈ 554 µM)
[2]; [8]
  solubility at 24 h: 151 µg/mL (≈ 548 µM)
  solubility at 30 min: 116 µg/mL (≈ 423 µM)
[2]; [9]
  solubility at 24 h: 145 µg/mL (≈ 528 µM)
  solubility at 30 min: 132 µg/mL (≈ 481 µM)
[2]; [10]
  solubility at 24 h: 140 µg/mL (≈ 508 µM)
  solubility at 30 min: 118 µg/mL (≈ 430 µM)
[2]; [11]
  solubility at 24 h: 140 µg/mL (≈ 508 µM)
  solubility at 30 min: 117 µg/mL (≈ 426 µM)
[2]; water, Water
  solubility at 24 h: 164 µg/mL (≈ 596 µM)
  solubility at 30 min: 138 µg/mL (≈ 501 µM)
Conscious dogs; 100 mg/kg oral
  Blood pressure, heart rate and electrocardiogram tracing: did not induce relevant changes
Conscious dogs; 1000 mg/kg oral, 3 hours after the administration
  Presence in plasma: confirmed the presence
Conscious dogs; 1000 mg/kg oral, before and 3 hours after dosing
  6-lead electrocardiogram: No disturbance in the 6-lead electrocardiogram
Conscious dogs; 1000 mg/kg oral, between 0.5 and 17 hours after dosing
  Vomiting: All animals vomited
Conscious dogs; 300 and 1000 mg/kg oral
  Arterial blood pressure (mean, systolic and diastolic): slight increase in arterial blood pressure
  PR and PQ interval durations: slight decrease in PR and PQ interval durations
  QT interval duration corrected for heart rate (Sarma's method): slight increase in QT interval duration
Conscious dogs; all the doses tested
  Electrocardiogram (lead II), T wave morphology: No disturbance in the electrocardiogram (lead II)
Acute toxicity in mouse; ip, dose-range 200-1000
  LD50: ~800 mg/kg
Acute toxicity in mouse; oral, os, dose-range 2000-4000
  LD50: > 4000 mg/kg
HERG tail current; 10^−4 M, highest concentration tested
  Reduction of HERG tail current: about 50%
HERG tail current; 10^−6 and 10^−5 M
  Inhibition of HERG tail current: slight and non dose-dependent decrease
HERG tail current; 10^−7 M
  Inhibition of HERG tail current: no statistically significant inhibition
HERG tail current; all concentrations, 70% is the threshold for an active compound
  Inhibition of HERG tail current, highest value reached: < 70%
[3]; 10^−4 M
  Action potential duration of repolarisation: significant decrease in action potential duration of repolarisation
[3]; 10^−7, 10^−6 and 10^−5 M, normal or low stimulation rates
  Action potential parameters: no statistically significant effect
[3]; all the concentrations tested
  Early or delayed after-depolarisation: neither early nor delayed after-depolarisation were recorded
Rat (Bone marrow Cells)
  Genotoxicity, Micronucleus test result: no clastogenic activity; also recorded: Negative

From patent USRE47078E1, “Polymorphic forms of N-[4-(trifluoromethyl)benzyl]-4-methoxybutyramide” (Laboratorio Farmaceutico C.T. S.R.L., priority 2007, dated 2018)
